{"source": "patent US7649013B2", "about": "“Methods of protecting against radiation injury” (priority 2003, dated 2010)", "key": {"[1]": {"test_system": "C57BL/6J inbred strain female mice", "test": "Survival after 8 Gy whole body γ-irradiation, oral 200 mg/kg at varying time points before (Example 6)", "assay_type": "in vivo", "settings": "for No. of animals surviving at 20 days post-irradiation: 10 animals; for Death rate (%): 20 days", "experimental": "β-lapachone is prepared at 10 mg/ml in 40% hydroxypropyl-beta-cyclodextrin (HPBCD).\nC57BL/6J inbred strain female mice (4-5 weeks old) are used. Animals are maintained in a climate-controlled animal facility.\nβ-lapachone (200 mg/kg body weight) is orally administered to animals at either 0.5 hour, 1 hour, 2 hours, 4 hours or 6 hours before irradiation.\nWhole body irradiation of animals with 8 Gy of γ-rays is carried out in air at room temperature in a gamma chamber (Gammacell 40 Exactor), at a dose-rate of 1.05 Gy/min. This radiation dose is within the range of equivalent human exposures predicted in many scenarios of radiologic or nuclear terrorist attack. […]\nGroup III: β-lapachone (200 mg/kg body weight) is orally administered to mice 6 hours before radiation.\nGroup IV: β-lapachone (200 mg/kg body weight) is orally administered to mice 4 hours before radiation.\nGroup V: β-lapachone (200 mg/kg body weight) is orally administered to mice 2 hours before radiation.\nGroup VI: β-lapachone (200 mg/kg body weight) is orally administered to mice 1 hour before radiation.\nGroup VII: β-lapachone (200 mg/kg body weight) is orally administered to mice 0.5 hour before radiation.\nAnimals are irradiated with 8 Gy at 1.05 Gy/min dose-rate. After irradiation mice are returned to their cage and observed on a regular basis. Exposure to γ-rays causes lethality in animals. Importantly, treatment with β-lapachone, especially at a level of 200 mg/kg orally at one hour prior to irradiation, diminishes the death rate."}, "[2]": {"test_system": "C57BL/6J inbred strain female mice", "test": "Histologic spleen cellularity after whole body irradiation, hematoxylin-eosin sections (Example 7c)", "assay_type": "in vivo", "settings": "40 mg/kg i.p. 0.5 hour before 5 Gy (nonlethal); five days after irradiation", "experimental": "Spleen cellularity is qualitatively assessed following whole body gamma irradiation in mice, with and without pretreatment with β-lapachone, as follows. β-lapachone is prepared at 10 mg/ml in 40% hydroxypropyl-beta-cyclodextrin (HPBCD). C57BL/6J inbred strain female mice (4-5 weeks old) are organized into three groups of six mice each: Group I mice receive no radiation, no β-lapachone, and no carrier; Group II mice receive radiation and are injected with carrier (40% HPBCD 4 ml/kg body weight); and Group III mice are injected intraperitoneally at 0.5 hour before irradiation with β-lapachone (40 mg/kg body weight). Whole body irradiation of animals with 8 Gy (lethal radiation) or 5 Gy (sublethal radiation) of γ-rays is carried out in air at room temperature in a gamma chamber (Gammacell 40 Exactor), with a dose-rate of 1.05 Gy/min. This radiation dose is within the range of equivalent human exposures predicted in many scenarios of radiologic or nuclear terrorist attack. Following irradiation, animals are maintained in a climate-controlled animal facility. Three mice in each of Groups I, II, and III are sacrificed on day five following irradiation, and an analysis of splenic cellularity is performed for each. […] Splenic cellularity is qualitatively assessed in sections stained with hematoxylin-eosin following standard procedures."}, "[3]": {"test_system": "E2F1 in normal colon cells (NCM460)", "test": "E2F1 level in whole cell extracts, SDS/PAGE and enhanced chemiluminescence, normal colon cells", "assay_type": "cell-based, human", "settings": "NCM460, 2 μM, 20 minute to 4 hour exposures", "experimental": "Human colon cancer cells (SW480) and normal colon cells (NCM460) are treated with β-lapachone at a concentration of 2 μM and are harvested after 20 minute, 1 hour, 2 hour, or 4 hour exposures. Whole cell extracts are prepared and resolved by SDS/PAGE. An enhanced chemiluminescence assay system (Amersham Pharmacia) is used to determine the E2F1 level. Monoclonal antibody against […] is obtained from Santa Cruz Biotechnology (Santa Cruz, Calif.). […] Elevation of E2F1 following exposure to β-lapachone persists through cell death in cancer cells."}, "[4]": {"test_system": "Chk2 in human cervical cancer cells (HeLa)", "test": "Chk2 phosphorylation by immunoblotting of whole cell lysates", "assay_type": "cell-based", "settings": "4 μM", "experimental": "Human cervical cancer cells (HeLa) are treated with 4 μM β-lapachone for 0, 3, 10, 30, 60 and 120 minutes. Whole cell lysates are prepared, separated by SDS-PAGE, and analyzed by immunoblotting with anti-Chk2 and anti-phosphorylated-Chk2 antibodies."}, "[5]": {"test_system": "C57BL/6J inbred strain female mice", "test": "Quantitative spleen cellularity after whole body irradiation, trypan blue exclusion count (Example 7b)", "assay_type": "in vivo", "settings": "40 mg/kg i.p. 0.5 hour before 8 Gy; day five and eight; P=0.00035", "experimental": "Spleen cellularity is quantitatively assessed following whole body gamma irradiation in mice, with and without pretreatment with β-lapachone, as follows. β-lapachone is prepared at 10 mg/ml in 40% hydroxypropyl-beta-cyclodextrin (HPBCD). C57BL/6J inbred strain female mice (4-5 weeks old) are organized into three groups of six mice each: Group I mice receive no radiation, no β-lapachone, and no carrier; Group II mice receive radiation and are injected with carrier (40% HPBCD 4 ml/kg body weight); and Group III mice are injected intraperitoneally at 0.5 hour before irradiation with β-lapachone (40 mg/kg body weight). […] Three mice in each of Groups I, II, and III are sacrificed on day five following irradiation, and a quantitative analysis of splenic cellularity is performed for each. The remaining mice are sacrificed on day eight following irradiation, and a quantitative analysis of splenic cellularity is performed for each.\nFor quantitative analysis for splenic cellularity, spleens are processed into single cell suspensions and erythrocytes are lysed in 2 ml lysis buffer (0.01 M KHCO3, 0.154 M NH4Cl, 0.01 mM EDTA). The remaining leukocytes are washed, suspended and counted in a hemacytometer using the trypan blue exclusion method."}, "[6]": {"settings": "200 mg/kg p.o. 0.5 hr before Radiation 8 Gy"}, "[7]": {"settings": "200 mg/kg p.o. 1 hr before Radiation 8 Gy"}, "[8]": {"settings": "200 mg/kg p.o. 2 hr before Radiation 8 Gy"}, "[9]": {"settings": "200 mg/kg p.o. 4 hr before Radiation 8 Gy"}, "[10]": {"settings": "200 mg/kg p.o. 6 hr before Radiation 8 Gy"}}, "note": "Entries after “also recorded” stand apart in the source; their conditions may differ."}
{"smiles": "CC1(C)CCC2=C(O1)c1ccccc1C(=O)C2=O", "note": "[β-lapachone, 3,4-dihydro-2,2-dimethyl-2H-naphtho[1,2-b]pyran-5,6-dione]", "values": [{"measurement": "Median survival time", "setting": "[1]; [6]", "result": 10, "unit": "days"}, {"measurement": "No. of animals surviving at 20 days post-irradiation", "setting": "[1]; [6]", "result": 0}, {"measurement": "Death rate (%)", "setting": "[1]; [6]", "result": 100, "unit": "%"}, {"measurement": "Survival of the treated mice at day 50 post irradiation (FIG. 7)", "setting": "[1]; 200 mg/kg p.o. 1 hour prior to 8 Gy", "result": "more than 30%"}, {"measurement": "Median survival time", "setting": "[1]; [7]", "result": 18, "unit": "days"}, {"measurement": "No. of animals surviving at 20 days post-irradiation", "setting": "[1]; [7]", "result": 3}, {"measurement": "Death rate (%)", "setting": "[1]; [7]", "result": 70, "unit": "%"}, {"measurement": "Median survival time", "setting": "[1]; [8]", "result": 10, "unit": "days"}, {"measurement": "No. of animals surviving at 20 days post-irradiation", "setting": "[1]; [8]", "result": 0}, {"measurement": "Death rate (%)", "setting": "[1]; [8]", "result": 100, "unit": "%"}, {"measurement": "Median survival time", "setting": "[1]; [9]", "result": 14, "unit": "days"}, {"measurement": "No. of animals surviving at 20 days post-irradiation", "setting": "[1]; [9]", "result": 0}, {"measurement": "Death rate (%)", "setting": "[1]; [9]", "result": 100, "unit": "%"}, {"measurement": "Median survival time", "setting": "[1]; [10]", "result": 18, "unit": "days"}, {"measurement": "No. of animals surviving at 20 days post-irradiation", "setting": "[1]; [10]", "result": 1}, {"measurement": "Death rate (%)", "setting": "[1]; [10]", "result": 90, "unit": "%"}, {"measurement": "Spleen structure and cellularity judged histologically (FIG. 10)", "setting": "[2]", "result": "protective effect on spleen structure and cellularity"}, {"measurement": "E2F1 level", "setting": "[3]", "result": "not in similarly treated normal human colon cells"}, {"measurement": "Time at which phosphorylated Chk2 levels appear", "setting": "[4]", "result": 10, "unit": "min"}, {"measurement": "Phosphorylated Chk2 (p-Chk2) level / proportion of phosphorylated Chk2", "setting": "[4]; 0-120 minutes", "result": "induces an increase in the proportion of phosphorylated Chk2; also recorded: sustained increase"}, {"measurement": "Total amount of Chk2 within the cells", "setting": "[4]; 0-120 minutes", "result": "remains unchanged"}, {"measurement": "Splenic cellularity, quantitative (FIG. 9)", "setting": "[5]", "result": "significantly preserved cellularity"}]}
